Measured values: patent US7109225B2, “Substituted oxazole derivatives” (Hofmann-la Roche Inc., priority 2002, dated 2006)

What was measured:
[1] = target: T1, PPARγ (Mus musculus, UniProt P37238); test: Radioligand binding assay (scintillation proximity), GST-PPARγ-LBD fusion protein; parameters: PPARγ (aa 174 to 476); settings: radioligand binding (SPA)
T1 sequence (P37238 204-505): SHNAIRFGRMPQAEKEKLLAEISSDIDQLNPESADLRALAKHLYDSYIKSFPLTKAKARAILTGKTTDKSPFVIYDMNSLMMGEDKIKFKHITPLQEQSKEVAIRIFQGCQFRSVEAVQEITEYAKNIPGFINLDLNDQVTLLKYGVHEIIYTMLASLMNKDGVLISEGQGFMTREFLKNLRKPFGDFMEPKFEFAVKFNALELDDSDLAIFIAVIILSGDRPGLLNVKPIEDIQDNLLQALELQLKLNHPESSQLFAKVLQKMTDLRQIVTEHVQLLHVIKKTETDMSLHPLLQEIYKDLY
Source text: Background information on the performed assays can be found in: Nichols J S et al. “Development of a scintillation proximity assay for peroxisome proliferator-activated receptor gamma ligand binding domain”, (1998) Anal. Biochem. 257: 112–119.
(§1) Full-length cDNA clones for human PPARα and mouse PPARγ were obtained by RT-PCR from human adipose and mouse liver cRNA, respectively, cloned into plasmid vectors and verified by DNA sequencing. Bacterial and mammalian expression vectors were constructed to produce glutathione-s-transferase (GST) and Gal4 DNA binding domain proteins fused to the ligand binding domains (LBD) of PPARγ (aa 174 to 476) and PPARα (aa 167 to 469). To accomplish this, the portions of the cloned sequences encoding the LBDs were amplified from the full-length clones by PCR and then subcloned into the plasmid vectors. Final clones were verified by DNA sequence analysis.
(§2) Induction, expression, and purification of GST-LBD fusion proteins were performed in E. coli strain BL21 (pLysS) cells by standard methods (Ref: Current Protocols in Molecular Biology, Wiley Press, edited by Ausubel et al.).
(§3) Radioligand Binding Assay
PPARγ receptor binding was assayed in TKE50 (50 mM Tris-HCl, pH 8, 50 mM KCl, 2 mM EDTA, 0.1 mg/ml fatty acid-free BSA and 10 mM DTT). For each 96 well reaction an 140 ng equivalent of GST-PPARγ-LBD fusion protein was bound to 10 ug SPA beads (PharmaciaAmersham) in a final volume of 50 ul by shaking. The resulting slurry was incubated for 1 h at RT and centrifuged for 2 min at 1300 g. The supernatant containing unbound protein was removed and the semidry pellet containig the recptor-coated beads was resolved in 50 ul of TKE. For radioligand binding e.g. 10000 dpm 2(S)-(2-benzoyl-phenylamino)-3-{4-[1,1-ditritio-2-(5-methyl-2-phenyl-oxazol-4-yl)-ethoxy]-phenyl}-propionic acid in 50 ul were added, the reaction incubated at RT for 1 h and scintillation proximity counting performed. All binding assays were performed in 96 well plates and the amount of bound ligand measured on a Packard TopCount using OptiPlates (Packard). Nonspecific binding was determined in the presence of 10^−4 M unlabelled compound. Dose response curves were done in triplicates within a range of concentration from 10^−10 M to 10^−4 M.

[2] = target: T1, PPARγ; test: Luciferase transcriptional reporter gene assay, BHK21 cells transfected with pFA-PPARγ-LBD; type: cell-based; parameters: PPARγ (aa 174 to 476); expressed in transfected cells; host or cells: BHK21 (ATCC CCL10); settings: Gal4-PPARγ-LBD
Source text: as §1
(§4) Luciferase Transcriptional Reporter Gene Assays
(§5) Baby hamster kidney cells (BHK21 ATCC CCL10) were grown in DMEM medium containing 10% FBS at 37° C. in a 95%02:5%CO2 atmosphere. Cells were seeded in 6 well plates at a density of 10^5 Cells/well and then batch-transfected with either the pFA-PPARγ-LBD or pFA-PPARα-LBD expression plasmids plus a reporter plasmid and an expression plasmid encoding the secretable form of alkaline phosphatase (SEAP) as a normalization control. […] Six hours following transfection, the cells were harvested by trypsinization and seeded in 96 well plates at a density of 10^4 cells/well. After 24 hours to allow attachment of cells, the medium was removed and replaced with 100 ul of phenol red-free medium containing the test substances or control ligands (final DMSO concentration: 0.1%). Following incubation of the cells for 24 hours with substances, 50 ul of the supernatant was recovered and analyzed for SEAP activity (Roche Molecular Biochemicals). The remainder of the supernatant was discarded, 50 ul PBS was added per well followed by one volume of Luciferase Constant-Light Reagent (Roche Molecular Biochemicals) to lyse the cells and initiate the luciferase reaction. Luminescence for both SEAP and luciferase was measured in a Packard TopCount. Luciferase activity was normalized to the SEAP control and transcriptional activation in the presence of a test substance was expressed as fold-activation over cells incubated in the absence of the substance. EC50 values were calculated using the XLfit program (ID Business Solutions Ltd. UK).

[3] = target: T2, PPARα (Homo sapiens, UniProt Q07869); test: Radioligand binding assay, GST-PPARα-LBD fusion protein; parameters: PPARα (aa 167 to 469)
T2 sequence (Q07869 167-468 limits assumed): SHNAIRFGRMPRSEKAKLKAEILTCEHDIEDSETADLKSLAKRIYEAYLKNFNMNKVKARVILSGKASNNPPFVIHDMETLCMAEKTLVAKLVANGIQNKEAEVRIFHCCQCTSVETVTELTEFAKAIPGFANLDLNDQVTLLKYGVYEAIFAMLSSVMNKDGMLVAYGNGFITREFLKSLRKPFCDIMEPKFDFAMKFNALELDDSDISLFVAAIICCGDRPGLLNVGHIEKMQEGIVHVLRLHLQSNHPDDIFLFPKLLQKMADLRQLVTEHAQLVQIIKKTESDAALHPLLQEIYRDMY
Source text: (§6) Full-length cDNA clones for human PPARα and mouse PPARγ were obtained by RT-PCR from human adipose and mouse liver cRNA, respectively, cloned into plasmid vectors and verified by DNA sequencing. […] To accomplish this, the portions of the cloned sequences encoding the LBDs were amplified from the full-length clones by PCR and then subcloned into the plasmid vectors. Final clones were verified by DNA sequence analysis.
as §2, §3
PPARα receptor binding was assayed in TKE10 (10 mM Tris-HCl, pH 8, 50 mM KCl, 2 mM EDTA, 0.1 mg/ml fatty acid free BSA and 10 mM DTT). […]
PPARγ receptor binding was assayed in TKE50 (50 mM Tris-HCl, pH 8, 50 mM KCl, 2 mM EDTA, 0.1 mg/ml fatty acid-free BSA and 10 mM DTT). […] All binding assays were performed in 96 well plates and the amount of bound ligand measured on a Packard TopCount using OptiPlates (Packard). Nonspecific binding was determined in the presence of 10^−4 M unlabelled compound. […]

[4] = target: T2, PPARα; test: Luciferase transcriptional reporter gene assay, BHK21 cells transfected with pFA-PPARα-LBD; type: cell-based; parameters: PPARα (aa 167 to 469); expressed in transfected cells; host or cells: BHK21 (ATCC CCL10); settings: Gal4-PPARα-LBD
Source text: as §6, §4, §5

CCO[C@@H](Cc1ccc(OCCc2nc(C(C)(C)C)oc2C)c2ccccc12)C(=O)O [Example 1, (S)-3-{4-[2-(2-tert-Butyl-5-methyl-oxazol-4-yl)-ethoxy]-naphthalen-1-yl}-2-ethoxy-propionic acid]
IC50 [1]: 153 nM
EC50 [2]: 237 nM
melting point: 103 to 105 °C
IC50 [3]: 53 nM
EC50 [4]: 35 nM
